Experimental data published in ChEMBL document CHEMBL1138402, “CCR5 receptor antagonists: discovery and SAR study of guanylhydrazone derivatives” (Bioorg Med Chem Lett, 2007).

Target: C-C chemokine receptor type 5 (Homo sapiens, UniProt P51681)
Test: Displacement of [125I]MIP1-alpha from human CCR5/CD4 expressed in HEK293 cells
Type: cell-based

C-C chemokine receptor type 5, sequence (P51681 whole entry): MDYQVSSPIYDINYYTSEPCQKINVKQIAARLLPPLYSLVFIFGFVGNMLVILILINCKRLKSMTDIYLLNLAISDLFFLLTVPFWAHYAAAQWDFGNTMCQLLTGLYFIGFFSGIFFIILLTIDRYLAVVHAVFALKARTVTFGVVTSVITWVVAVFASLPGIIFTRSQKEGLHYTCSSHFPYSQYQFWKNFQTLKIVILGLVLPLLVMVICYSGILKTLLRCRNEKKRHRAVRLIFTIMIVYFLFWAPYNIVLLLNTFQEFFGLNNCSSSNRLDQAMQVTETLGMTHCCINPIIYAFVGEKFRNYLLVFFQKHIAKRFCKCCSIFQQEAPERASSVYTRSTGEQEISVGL

Compound | IC50 [nM]
Clc1ccc(COc2ccc(Br)cc2CN2CCOCC2)cc1 | 1000
Clc1ccc(COc2ccc(Br)cc2/C=N/NC2=NCCCN2)cc1 | 2000
Clc1ccc(COc2ccc(Br)cc2/C=N/NC2=NCCN2)cc1 | 750
N=C(N)N/N=C/c1cc(N)ccc1OCc1ccc(Cl)cc1 | > 30000
N=C(N)N/N=C/c1cc(Cl)cc(Cl)c1OCc1ccc(Cl)cc1 | 3100
N=C(N)N/N=C/c1cc(Br)ccc1OCc1ccc(-c2ccccc2)cc1 | 1700
N=C(N)N/N=C/c1cc(Br)ccc1OCc1cccc([N+](=O)[O-])c1 | 1700
CCN(CC)c1ccc(OCc2ccc(Cl)cc2)c(/C=N/NC(=N)N)c1 | > 30000
N=C(N)N/N=C/c1cc(Br)ccc1OCc1ccc(Cl)cc1 | 840
COC(=O)c1ccc(COc2ccc(Br)cc2/C=N/NC(=N)N)cc1 | 1300
Cc1ccc(COc2ccc(Br)cc2/C=N/NC(=N)N)cc1 | 500
COC(=O)c1ccc(OCc2ccc(Cl)cc2)c(/C=N/NC(=N)N)c1 | > 30000
N=C(N)N/N=C/c1ccccc1OCc1ccc(Cl)cc1 | > 30000
N=C(N)N/N=C/c1cc([N+](=O)[O-])ccc1OCc1ccc(Cl)cc1 | 1200
N=C(N)N/N=C/c1cccc(Cl)c1OCc1ccc(Cl)cc1 | > 30000
COc1ccc(COc2ccc(Br)cc2/C=N/NC(=N)N)cc1 | 700
N=C(N)N/N=C/c1cccc(F)c1OCc1ccc(Cl)cc1 | > 30000

Compound | IC50 [nM]
N=C(N)N/N=C/c1cc(Br)ccc1OCc1ccc(F)cc1 | 800
COc1ccc([N+](=O)[O-])cc1COc1ccc(Br)cc1/C=N/NC(=N)N | 8700
N=C(N)N/N=C/c1cc(Br)ccc1OCc1ccc(OCc2ccccc2)cc1 | 2900
N#Cc1cccc(COc2ccc(Br)cc2/C=N/NC(=N)N)c1 | 2000
Cc1cccc(COc2ccc(Br)cc2/C=N/NC(=N)N)c1 | 1700
C/C(=N\NC(=N)N)c1cc(Br)ccc1OCc1ccc(Cl)cc1 | 200
CC(C)C/C(=N\NC(=N)N)c1cc(Cl)ccc1OCc1ccc(F)cc1 | > 30000
CC(C)(C)c1ccc(OCc2ccc(Cl)cc2)c(/C=N/NC(=N)N)c1 | > 30000
N=C(N)N/N=C/c1cc(Br)ccc1OCc1ccc(F)cc1F | 3700
N#Cc1ccc(COc2ccc(Br)cc2/C=N/NC(=N)N)cc1 | 480
N=C(N)N/N=C/c1cc(Br)ccc1OCc1cccc(C(=O)O)c1 | 39000
N=C(N)N/N=C/c1cc(Br)ccc1OCc1ccc([N+](=O)[O-])cc1 | 900
N=C(N)N/N=C/c1ccc(Cl)cc1OCc1ccc(Cl)cc1 | > 30000
N=C(N)N/N=C/c1cc(Br)ccc1OCc1ccc(Br)cc1 | 600
N=C(N)N/N=C/c1cc(F)ccc1OCc1ccc(Cl)cc1 | 3400
COC(=O)c1cccc(COc2ccc(Br)cc2/C=N/NC(=N)N)c1 | 1600

Further lines, results first:

IC50 [nM] | Compound
1900 | N=C(N)N/N=C/c1cc(Br)ccc1OCc1ccccc1
600 | N=C(N)N/N=C/c1cc(Cl)ccc1OCc1ccc(Cl)cc1
> 30000 | COc1cc(Br)cc(/C=N/NC(=N)N)c1OCc1ccc(Cl)cc1
8500 | C/C(=N/NC(=N)N)c1cc(Cl)ccc1OCc1ccc(Cl)cc1
5700 | N=C(N)N/N=C/c1cc(Br)ccc1OCc1ccccc1[N+](=O)[O-]
93 | COc1cc(Br)cc(/C(C)=N/NC(=N)N)c1OCc1ccc(C#N)cc1
4200 | CCCC/C(=N\NC(=N)N)c1cc(Cl)ccc1OCc1ccc(F)cc1
400 | CC/C(=N\NC(=N)N)c1cc(Br)cc(OC)c1OCc1ccc(Cl)cc1
600 | N#Cc1ccc(OCc2ccc(Cl)cc2)c(/C=N/NC(=N)N)c1
140 | C/C(=N\NC(=N)N)c1cc(Cl)ccc1OCc1ccc(Cl)cc1
14000 | CN(/N=C/c1cc(Br)ccc1OCc1ccc(Cl)cc1)C1=NCCN1
1400 | CCN(CC)Cc1cc(Br)ccc1OCc1ccc(Cl)cc1
600 | CN(C)Cc1cc(Br)ccc1OCc1ccc(Cl)cc1
1100 | N=C(N)N/N=C/c1cc(Br)ccc1OCc1cccc2ccccc12
